Experiments:
FAAH = target: T1, FAAH (Homo sapiens, UniProt O00519); test: In vitro FAAH enzyme inhibition activity assay (FAAH assay kit, fluorescently labeled substrate); type: biochemical
T1 construct: purchased
T1 sequence (O00519 1-579): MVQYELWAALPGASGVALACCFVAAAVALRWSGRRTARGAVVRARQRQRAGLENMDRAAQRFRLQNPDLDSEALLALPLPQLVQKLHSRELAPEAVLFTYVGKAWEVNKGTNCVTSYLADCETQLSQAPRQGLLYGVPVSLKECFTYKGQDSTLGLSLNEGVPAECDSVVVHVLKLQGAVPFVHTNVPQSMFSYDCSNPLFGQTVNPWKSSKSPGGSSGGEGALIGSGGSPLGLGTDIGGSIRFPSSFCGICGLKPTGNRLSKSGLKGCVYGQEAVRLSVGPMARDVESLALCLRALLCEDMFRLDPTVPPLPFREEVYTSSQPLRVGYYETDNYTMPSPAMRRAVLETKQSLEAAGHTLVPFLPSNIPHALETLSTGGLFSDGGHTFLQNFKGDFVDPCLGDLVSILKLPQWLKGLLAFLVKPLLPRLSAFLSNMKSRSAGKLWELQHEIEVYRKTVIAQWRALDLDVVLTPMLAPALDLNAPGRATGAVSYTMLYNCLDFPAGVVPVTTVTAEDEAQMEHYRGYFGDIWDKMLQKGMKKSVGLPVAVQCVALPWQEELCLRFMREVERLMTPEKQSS
Description: FAAH hydrolyzes AEA to form ethanolamine within cells. Different enzyme activities catalyze the formation of varying amounts of products from a fixed amount of substrate. The enzyme activity level can be assessed by measuring the amount of products generated. Based on this principle, experiments were designed in this invention. According to the FAAH assay kit instructions, a certain concentration of FAAH was diluted and added to a buffer solution along with a fluorescently labeled substrate. Compounds of various concentrations were then added, along with blank control groups and JZL-195 positive control groups. After the reaction, fluorescence analysis was performed using a plate reader, and the inhibition rate was calculated.

SD rats [1] = test: Forced swimming test, chlorpromazine-induced depression model; type: in vivo
Description: (§1) Male SD rats weighing between 180 g to 200 g were randomly divided into 6 groups, with 8 rats in each group, as follows: Normal group; Chlorpromazine group; Positive control group (Amitriptyline, 6 mg/kg); I-11 low dose group (3 mg/kg); I-11 medium dose group (6 mg/kg); I-11 high dose group (12 mg/kg); In the normal group, rats were maintained under normal conditions. In other groups, rats were intraperitoneally injected with chlorpromazine (0.2 mg/kg) once a day for three days to induce the model. After successful modeling, the respective drugs were administered according to the group. After two weeks of continuous administration, sucrose consumption test, open field test, and forced swimming test were conducted sequentially.

SD rats [2] = test: Sucrose preference test, chlorpromazine-induced depression model; type: in vivo
Description: as §1, with “sequentially. The American Psychiatric Association considers a significant feature of depression to be the decrease in reward responsiveness, indicating a loss of pleasure. The sucrose preference test is a well-established measure for assessing reward responsiveness in experimental animals.” for “sequentially.”

SD rats [3] = test: Open field test, chlorpromazine-induced depression model; type: in vivo; conditions: 6 mg/kg
Description: as §1, with “sequentially. After the sucrose preference test, we conducted an open field test on the experimental animals.” for “sequentially.”

mice = test: Acetic acid writhing test in mice (analgesic activity); type: in vivo; conditions: 5 mg/kg s.c
Description: Using the acetic acid writhing test in mice as a pain model to evaluate the analgesic activity of compound I-11. The experimental animal information and procedures are outlined below.
Healthy ICR mice, of clean grade, weighing 20-25 g. The animal facility complies with the requirements of a clean laboratory, with a temperature of 20-22° C., humidity of 40%˜70%, and controlled lighting on a 12-hour light/12-hour dark cycle (lighting from 8:00 to 20:00). Mice are housed in plastic cages (280×150×180 mm) with 10 mice per cage, separated by gender, and provided ad libitum access to food and water. The diet consists of experimental rodent pellets, and the drinking water is city tap water sterilized by high-temperature autoclaving. Mice are allowed a 7-day acclimatization period. All procedures involving animals are conducted following the guidelines of the International Association for the Study of Pain Ethics Committee. Mice are housed in the animal facility upon purchase.
Glacial acetic acid and physiological saline were obtained from the China Pharmaceutical University reagent repository. Compound I-11 was a laboratory-synthesized compound (purity>98%).
Mice were marked with saturated bitter solution, with the left front limb marked as number 1, left hind limb as number 2, right front limb as number 3, right hind limb as number 4, and head as number 5. Combinations such as head with left front limb as number 6, head with left hind limb as number 7, head with right front limb as number 8, head with right hind limb as number 9, and tail as number 10 were used for identification. Animals were divided into groups, with n=10 in each group, evenly distributed between males and females.
The experiment employed the acetic acid-induced writhing test in mice to investigate the analgesic activity of the samples. […] The number of writhing movements and the latency period of mice were observed and recorded 15 minutes after acetic acid injection, and the analgesic percentage was calculated. […]

Row | SMILES | IC50 (FAAH; values in nm) | IC50 (FAAH; values given in μm [sic]) | further results
1 | Cn1c(C(=O)N2CCC(C(=O)c3nnc(-c4cccc(Cl)c4)o3)CC2)cc2cc(Cl)ccc21 [Compound I-13, (5-chloro-1-methyl-1H-indol-2-yl)(4-(5-(3-chlorophenyl)-1,3,4-oxadiazol-2-carbonyl)piperidin-1-yl)methanone] | 0.0897 µM | – | –
2 | O=C(c1ccccn1)C1CCN(C(=O)c2cc3ccccc3o2)CC1 [Compound I-4, (1-(benzofuran-2-carbonyl)piperidin-4-yl)(pyridin-2-yl)methanone] | – | 10.1 µM | –
3 | Cn1c(C(=O)N2CCC(C(=O)c3nnc(-c4cccs4)o3)CC2)cc2cc(Cl)ccc21 [Compound I-16, (5-chloro-1-methyl-1H-indol-2-yl) (4-(5-(thiophene-2-yl)-1,3,4-oxadiazol-2-carbonyl)piperidin-1-yl)methanone] | 0.0129 µM | – | –
4 | Cn1c(C(=O)N2CCC(C(=O)c3nc4ccccc4s3)CC2)cc2cc(Cl)ccc21 [Compound I-9] | 0.279 µM | – | –
5 | O=C(c1ccccn1)C1CCN(Cc2cnc3ccccc3c2)CC1 [Compound I-6, Pyridin-2-yl(1-(quinolin-3-ylmethyl)piperidin-4-yl)methanone] | – | 132 µM | –
6 | Cn1c(C(=O)N2CCC(C(=O)c3ncco3)CC2)cc2cc(Cl)ccc21 [Compound I-7, (5-Chloro-1-methyl-1H-indol-2-yl)(4-(oxazole-2-carbonyl)piperidin-1-yl) methanone] | 0.0779 µM | – | –
7 | CN(C)CCC=C1c2ccccc2CCc2ccccc21 [Amitriptyline] | – | – | immobility time versus model (in words) (SD rats [1]; Amitriptyline 6 mg/kg, I-11 medium and high dose, p<0.05): reduce the immobility time; Immobility Time (SD rats [1]; model rats, 6 mg/kg): 88.47 ± 4.64 s; sucrose intake compared to the model group (in words) (SD rats [2]; high-dose I-11 (12 mg/kg), amitriptyline 6 mg/kg): significant increase in sucrose intake; Sucrose intake ratio (SD rats [2]; model rats, 6 mg/kg, two weeks of administration): 78.6 ± 4.6 %; Frequency of grooming (SD rats [3]): 4.3 ± 0.3 n; Frequency of upright (SD rats [3]): 10.6 ± 2.2 n; Times passing the grid (SD rats [3]): 58.9 ± 2.2 n; Total time in center (SD rats [3]): 4.6 ± 0.6 s
8 | Cn1c(C(=O)N2CCC(C(=O)c3nccs3)CC2)cc2cc(Cl)ccc21 [Compound I-8, (5-chloro-1-methyl-1H-indol-2-yl)(4-(thiazol-2-carbonyl)piperidin-1-yl)methanone] | – | 1.03 µM | –
9 | CN1CC[C@]23c4c5ccc(O)c4O[C@H]2[C@@H](O)C=C[C@H]3[C@H]1C5 [Morphine] | – | – | Inhibition (analgesic percentage, writhing) (mice): 100.0%; latency period (mice): 0 s; writhing count (mice; within 15 minutes after acetic acid): 0
10 | O=C(Oc1ccc([N+](=O)[O-])cc1)N1CCN(Cc2cccc(Oc3ccccc3)c2)CC1 [JZL-195, reference compound] | 0.00281 µM | – | –
11 | Cn1c(C(=O)N2CCC(C(=O)c3ncc(-c4ccccc4)o3)CC2)cc2cc(Cl)ccc21 [Compound I-10, (5-chloro-1-methyl-1H-indol-2-yl)-(4-(5-phenyl-oxazol-2-carbonyl)piperidin-1-yl)methanone] | 0.112 µM | – | –
12 | Cn1c(C(=O)N2CCC(C(=O)c3ccncc3)CC2)cc2ccccc21 [Compound I-2] | – | 14.2 µM | –
13 | Cn1c(C(=O)N2CCC(C(=O)c3ccncc3)CC2)cc2cc(Cl)ccc21 [Compound I-1] | – | 27.9 µM | –
14 | Cn1c(C(=O)N2CCC(C(=O)c3nnc(-c4ccco4)o3)CC2)cc2cc(Cl)ccc21 [Compound I-15, (5-chloro-1-methyl-1H-indol-2-yl)(4-(5-(furan-2-yl)-1,3,4-oxadiazol-2-carbonyl)piperidin-1-yl)methanone] | 0.00311 µM | – | –
15 | O=C(c1ccccn1)C1CCN(C(=O)c2cnc3ccccc3c2)CC1 [Compound I-5] | – | 125 µM | –
16 | Cn1c(C(=O)N2CCC(C(=O)c3ccccn3)CC2)cc2cc(Cl)ccc21 [Compound I-3] | – | 13.5 µM | –

— patent US20240391901A1, “SUBSTITUTED HETEROCYCLIC COMPOUND CONTAINING ALPHA-KETONE FRAMEWORK, AND USE THEREOF” (CHINA PHARMACEUTICAL UNIVERSITY, priority 2021, published 2024)
